According to US8697649B2, “Polypeptides, nucleic acid molecule encoding polypeptides, and uses of polypeptides” (China Medical University, priority 2012, dated 2014):
Entries after “also recorded” stand apart in the source; their conditions may differ. Where two headings read alike, the source gives them in different places. Where no end group is shown, it is not given here.

What was measured:
insulin receptor [1] = molecular target: T1, insulin receptor (Homo sapiens, UniProt P06213); experiment: Whole cell receptor binding assay with 125I-labeled insulin (IM-9 cells)
T1 construct: endogenous in cells; host or cells: IM-9 human lymphocyte cell line
Description: After incubation, the cells were chilled, centrifuged at 2000 rpm for 10 min at 4° C., and the pellets were washed twice with an ice-cold wash buffer (10 mmol/L Tris and 150 mmol/L NaCl, pH 7.6). The pellet was counted by a gamma counter. The assays were performed at least three times for each polypeptide. […] The lower value of EC50 represents a stronger effect on promoting the binding.

[2] = molecular target: insulin receptor tyrosine kinase (Homo sapiens, UniProt P06213); experiment: Receptor binding assay by insulin receptor tyrosine kinase activity; format: biochemical; details: poly(Glu,Tyr) substrate, [γ-32P]ATP
Description: The sample was placed in an ice bath for 10 minutes. Then, TCA was added thereinto to precipitate the substrate (poly(Glu,Tyr)) on a filter paper.

[3] = system: mice (BALB/c, STZ-induced, ob/ob); experiment: Blood sugar reducing assay; format: in vivo; details: 2.5×10^−9 mole/kg intraperitoneal, 150 minutes
Description: IRBP-1-68 (SEQ ID NO:1), the polypeptides having the segmental amino acid sequences of IRBP, and the polypeptides derived from the substitution of multiple amino acids in the segmental amino acid sequences were analyzed by a blood sugar reducing assay. […] The polypeptides (100 μl, 2.5×10^−9 mole/kg body weight) as shown in Table 11 were administrated to each mouse in an experimental group by intraperitoneal injection. Each mouse in the control group was administrated with 100 μl water. […] After 150 minutes, blood samples were collected from the mouse tails, while the blood sugar value was measured by a glucometer (ACCU-CHEK Advantage, Roche, Germany). The blood sugar values of the mice in the experimental group and control group were compared and analyzed.

diabetic mice [4] = experiment: Measurement of liver index; format: in vivo; details: oral, after 28 days
Description: The polypeptide of IRBP-50-68 (SEQ ID NO:6) was orally administrated to the diabetic mice in the experimental group by the same method as described in Example 14. After 28 days, the liver indexes (GOT and GPT) of these mice were measured to evaluate the effect of the polypeptide on the hepato disorders caused by diabetes in diabetic mice.

[5] = system: diabetic mice (STZ-induced); experiment: Glycated hemoglobin value assay; format: in vivo; details: 1×10^−6 mole/kg oral, after 28 days
Description: Glycated hemoglobin value (HbAlc) is the concentration of glucose attached on red blood cells in the blood of an organism. In general, a higher concentration of blood sugar reflects a higher glycated hemoglobin value, while the glycated hemoglobin value is a standard for evaluating the effect of a medicament on treating diabetes. Therefore, in this example, the effect of the polypeptide on controlling the blood sugar values of the mice were evaluated by measuring the glycated hemoglobin value.
In the experimental group, the polypeptides (1×10^−6 mole/kg body weight, 20 μl) were orally administrated to each mouse in the experimental group. In the control group, each mouse was administrated by 20 μl water. The glycated hemoglobin value was measured after 28 days.

diabetic mice [6] = experiment: Measurement of renal index; format: in vivo; details: oral, after 28 days, blood
Description: After 28 days, the kidney indexes (BUN and CRE) in the blood of these mice were measured to evaluate the effects of these polypeptides on the renal disorders caused by diabetes.

insulin receptor [7] = molecular target: T1, insulin receptor; experiment: Insulin receptor autophosphorylation assay in IM-9 cells; format: cell-based; details: stimulated 15 min at 37° C., immunoblotting, FIG. 2
Description: The assay was conducted by the following steps: The human lymphocyte cell line (IM-9) was serum-starved (RPMI medium supplemented with 0.1% BSA) for 16 h and then stimulated with IRBP-1-68 (SEQ ID NO:1) for 15 min at 37° C., and washed with cold PBS. The cells were lysed to obtain about […] of total proteins, while the immunoprecipitation was conducted by the anti-insulin receptor polyclonal antibody (C-19). Then, the protein was adsorbed onto protein G-agarose beads (Gibco-BRL, Gaithersburg, Md.) for 2 h at 4° C., resolved by SDS-PAGE, and transferred to an Immobilon-P membrane by electroblotting. The membrane was incubated with antiphosphotyrosine antibody (4G10) overnight at 4° C. to conduct the immunoblotting analysis. In FIG. 2, the broader band of the immunoblotting analysis represents a higher protein expression level.

3T3-L1 adipocytes [8] = experiment: Microarray analysis; format: cell-based; details: expression increased or decreased up to 2 folds
Description: Total RNAs were extracted from 3T3-L1 adipocytes which were or were not treated with IRBP-1-68 (SEQ ID NO:1) using RNeasy Mini kit (Qiagen, Valencia, Calif., USA). Total RNA was evaluated using Agilent 2100 bioanalyzer (Agilent Technologies, Santa Clara, Calif., USA). The RNA sample with an RNA integrity number greater than 8.0 was selected. Microarray analysis was performed as described previously (see Cheng, W. Y. et al., 2009, Comprehensive evaluation of a novel nuclear factor-κB inhibitor, quinoclamine, by transcriptomic analysis. Brit. J. Pharmacol. 157(5): 746-756; Cheng, H. M. et al., 2010, Application of bioactivity database of Chinese herbal medicine on the therapeutic prediction, drug development, and safety evaluation. J. Ethnopharmacol. 132 (2): 429-437; and Hsiang, C. Y. et al., 2009, Nuclear factor-κB bioluminescence imaging-guided transcriptomic analysis for the assessment of hoist-biomaterial interaction in vivo. Biomaterials 30 (17): 3042-3049, which are entirely incorporated hereinto by reference).

3T3-L1 adipocytes [9] = experiment: Glucose uptake assay; format: cell-based; details: 1 nM insulin plus IRBP-1-68, 30 min, [3H]-2-deoxy-D-glucose 10 min
Text: A key step for modulating blood sugar is that adipose tissue can uptake glucose from the blood and thereby, reduce blood sugar. Accordingly, this example further used 3T3-L1 adipocytes as an assay platform to conduct the glucose uptake assay. […] The cells were washed three times with ice-cold phosphate buffered saline (PBS) and then solubilized in 0.1% SDS.

3T3-L1 adipocytes [10] = experiment: Western blotting analysis of insulin signal pathway-related proteins; format: cell-based; details: 3T3-L1 adipocytes treated 16 hours, FIG. 3
Description: 3T3-L1 adipocytes were cultured at 37° C. for 24 hours, treated with IRBP-1-68 (SEQ ID NO:1) for 16 hours, collected using a cell scraper after being washed with ice-cold PBS, and lysed with a 300 μl sample buffer (62.5 mM Tris-HCl, pH 6.8, 2% sodium dodecyl sulfate, 10% glycerol, 50 mM dithiothreitol, 0.1% bromophenol blue). The protein concentration of the cell lysate was determined with a Bradford method (Bio-Rad, Hercules, Calif., USA). The proteins (10 μg) were separated by SDS-PAGE and the protein bands were then transferred electrophoretically to nitrocellulose membranes (Amersham Pharmacia Biotech Inc., Piscataway, N.J., USA). Membranes were blocked in blocking buffer (20 mM Tris-HCl, pH 7.6, 140 mM NaCl, 0.1% Tween-20, 5% skim milk powder) and probed with anti-Akt, anti-phospho-Akt (Ser473), anti-phospho-Akt (Thr308), anti-phospho-PTEN (phosphatase and tensin homolog deleted on Chromosome ten) (Ser380), anti-phospho-GSK-3β (glycogensynthasekinase-3β) (Ser9), anti-phospho-Raf (Ser259), anti-phospho-PDK1 (phosphoinositide-dependent kinase 1) (Ser241) antibodies (Cell Signaling Technology, Beverly, Mass., USA). The result was shown in FIG. 3, wherein the values shown in FIG. 3 represent the intensity of the bands in western blotting analysis. A higher value represents a higher expression level of the target protein.

3T3-L1 adipocytes [11] = experiment: Immunochemical analysis of GLUT4; format: cell-based; details: FIG. 4
Description: Immunochemical analysis was conducted by the following method: 3T3-L1 adipocytes were cultured and fixed on a cover slide, and incubated with a 1:50 diluted mouse monoclonal antibody against GLUT4 (Millipore, Billerica, Mass., USA) at 4° C. overnight. Then, the cells were incubated with biotinylated secondary antibody (Zymed Laboratories, South San Francisco, Calif., USA) at room temperature for 20 min. Then, the slides were incubated with avidin-biotin complex reagent and stained with 3,3′-diaminobenzidine (HISTOSTAIN®-Plus Kit, Zymed Laboratories, South San Francisco, Calif., USA).

[12] = STZ-induced mice, glucose 1 g/kg

Question: How did the EC50 (insulin receptor [1]; IM-9 cells, 16° C., 90 min) turn out when VIIKVGSGATKDFRCDRVR [IRBP-34-52] was run?
Answer: The EC50 was greater than 25 nM.

Question: How did the “activity of insulin receptor tyrosine kinase” value [2] turn out when “RYKYQWFYI (optimal docking polypeptide of insulin receptor) [IRBP-9A]” was run?
Answer: Its value is 40.34 ± 1.94 U/ml.

Question: And the “blood sugar inhibition ratio” value [3, 12]?
Answer: The value was 34.2 ± 13.6%.

Question: Which “activity of insulin receptor tyrosine kinase” value [2] does the source give for “RYKYQCWYI (optimal docking polypeptide of insulin receptor) [IRBP-9D]” here?
Answer: The value was 65.95 ± 1.74 U/ml.

Question: How did the EC50 (insulin receptor [1]) turn out when GAAAKAVIERENPRVRVI [IRBP-17-35] was run?
Answer: Its EC50 is greater than 25 nM.

Question: What does the source list for RVRVWVTERGIVARPPTIG [IRBP-50-68]?
Answer: GOT (diabetic mice [4]): 247.89 ± 97.38; GPT (diabetic mice [4]): 135.72 ± 30.72; glycated hemoglobin value [5]: 5.93 ± 0.55 %; BUN (diabetic mice [6]): 107.25 ± 42.99; CRE (diabetic mice [6]): 0.191 ± 0.12

Question: Which results are given for “SRCQGKSSWPQLVGSTGAAAKAVIERENPRVRAVIIKVGSGATKDFRCDRVRVWVTERGIVARPPTIG [IRBP-1-68]”?
Answer: insulin receptor autophosphorylation (ratio of phosphorylated insulin receptor to insulin receptor) (insulin receptor [7]): increased along with the increment of IRBP-1-68 (SEQ ID NO:1) concentration; also recorded: can induce insulin receptor autophosphorylation; number of the genes with changed expression level (total gene number of the pathway) (3T3-L1 adipocytes [8]; adipocytokine signal pathway): 16 (71); number of the genes with changed expression level (total gene number of the pathway) (3T3-L1 adipocytes [8]; insulin signal pathway): 28 (136); Ratio (radioactivity, glucose uptake) (3T3-L1 adipocytes [9]): 1.79 ± 0.49; protein expression levels of insulin signal pathway-related genes (PDK-1, phosphorylated-AKt Thr 308, phosphorylated-AKt Ser 473, GLUT4) (3T3-L1 adipocytes [10]): can increase the protein expression levels; GLUT4 expression by immunochemical staining (3T3-L1 adipocytes [11]): can promote 3T3-L1 adipocytes to express GLUT4; blood sugar inhibition ratio ([3]; BALB/c mice, glucose 4 g/kg): 68.9 ± 0.9 %; blood sugar inhibition ratio [3, 12]: 37.3 ± 3.8%; blood sugar inhibition ratio ([3]; ob/ob mice, glucose 1 g/kg): 55.6 ± 12.9 %

Question: Which results are given for “RYKYQWWYI (optimal docking polypeptide of insulin receptor) [IRBP-9C]”?
Answer: activity of insulin receptor tyrosine kinase [2]: 44.18 ± 3.61 U/ml; blood sugar inhibition ratio [3, 12]: 22.6 ± 9.0%

Question: For “RYKYQCFYI (optimal docking polypeptide of insulin receptor) [IRBP-9B]”, which “activity of insulin receptor tyrosine kinase” value [2] is on record?
Answer: Its value is 79.76±5.64 U/ml.

Question: What about the “blood sugar inhibition ratio” value ([3]; BALB/c mice, glucose 4 g/kg) of the same sequence?
Answer: Its value is 61.0 ± 2.5 %.

Question: With IVARPPAIG [IRBP-MC] as the sequence, how does the EC50 (insulin receptor [1]; IM-9 cells, 16° C., 90 min) read?
Answer: Its EC50 is 0.86 ± 0.05 nM.

Question: Which EC50 (insulin receptor [1]; IM-9 cells, 16° C., 90 min) does the source give for IVYQVPTIG [IRBP-MT] here?
Answer: Its EC50 is 0.77 ± 0.02 nM.

Question: Which EC50 (insulin receptor [1]; IM-9 cells, 16° C., 90 min) does the source give for DFRCDRVRVWVTERGIVARPPTIG [IRBP-45-68] here?
Answer: Its EC50 is greater than 25 nM.

Question: With IVARPPTIG [IRBP-60-68] as the sequence, how does the glycated hemoglobin value [5] read?
Answer: Its glycated hemoglobin value is 5.73 ± 0.11 %.

Question: And the BUN (diabetic mice [6])?
Answer: The BUN was 73.17 ± 29.95.

Question: What about the CRE (diabetic mice [6]) of the same sequence?
Answer: The CRE was 0.17 ± 0.04.

Question: What about the EC50 (insulin receptor [1]) of the same sequence?
Answer: Its EC50 is 0.77 ± 0.04 nM.
